{
  "source": "PubChem BioAssay (NCI)",
  "experiment_in_all_cases": "NCI-60 cell line screen, 48 h",
  "key": {"[1]": {"test_system": "NCI-H522 lung"}, "[2]": {"test_system": "MOLT-4 leukemia"}, "[3]": {"test_system": "K-562 leukemia"}, "[4]": {"test_system": "DU-145 prostate"}, "[5]": {"test_system": "T-47D breast"}, "[6]": {"test_system": "CCRF-CEM leukemia"}, "[7]": {"test_system": "SF-539 CNS"}, "[8]": {"test_system": "HL-60(TB) leukemia"}, "[9]": {"test_system": "HCC-2998 colon"}, "[10]": {"test_system": "HS 578T breast"}, "[11]": {"test_system": "OVCAR-3 ovarian"}, "[12]": {"test_system": "A498 renal"}, "[13]": {"test_system": "SK-OV-3 ovarian"}, "[14]": {"test_system": "U251 CNS"}, "[15]": {"test_system": "SK-MEL-28 melanoma"}, "[16]": {"test_system": "OVCAR-5 ovarian"}, "[17]": {"test_system": "SW-620 colon"}, "[18]": {"test_system": "KM12 colon"}, "[19]": {"test_system": "HOP-62 NSCLC"}, "[20]": {"test_system": "UACC-257 melanoma"}, "[21]": {"test_system": "MDA-MB-468 breast"}, "[22]": {"test_system": "HOP-92 NSCLC"}, "[23]": {"test_system": "MALME-3M melanoma"}, "[24]": {"test_system": "SNB-75 CNS"}, "[25]": {"test_system": "LOX IMVI melanoma"}, "[26]": {"test_system": "HCT-116 colon"}, "[27]": {"test_system": "EKVX NSCLC"}, "[28]": {"test_system": "BT-549 breast"}, "[29]": {"test_system": "HT29 colon"}},
  "note": "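Where inhibition never reached the appropriate level, the endpoint shown equals the highest concentration tested. Otherwise, values were interpolated linearly from a five-concentration, 48-hour dose response in 96-well plates. At the GI50, growth is halved. TGI: concentration producing complete growth inhibition.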",
  "data": [
    {"smiles": "CC(=O)/C=C/c1cccc2c1C(=O)NC(C)(c1cc3cc(Br)ccc3oc1=O)N2", "note": "(stereo not drawn)", "values": [
      {"measurement": "GI50", "setting": "[1]", "result": 13.6, "unit": "µM"},
      {"measurement": "TGI", "setting": "[1]", "result": 28.8, "unit": "µM"},
      {"measurement": "GI50", "setting": "[2]", "result": 8.47, "unit": "µM"},
      {"measurement": "TGI", "setting": "[2]", "result": "> 100", "unit": "µM"},
      {"measurement": "GI50", "setting": "[3]", "result": 4.67, "unit": "µM"},
      {"measurement": "TGI", "setting": "[3]", "result": "> 100", "unit": "µM"},
      {"measurement": "GI50", "setting": "[4]", "result": 8.98, "unit": "µM"},
      {"measurement": "TGI", "setting": "[4]", "result": 22.3, "unit": "µM"},
      {"measurement": "GI50", "setting": "[5]", "result": 11.5, "unit": "µM"},
      {"measurement": "TGI", "setting": "[5]", "result": 64, "unit": "µM"},
      {"measurement": "GI50", "setting": "[6]", "result": 4.87, "unit": "µM"},
      {"measurement": "TGI", "setting": "[6]", "result": 56.7, "unit": "µM"},
      {"measurement": "GI50", "setting": "[7]", "result": 8.67, "unit": "µM"},
      {"measurement": "TGI", "setting": "[7]", "result": 22.3, "unit": "µM"},
      {"measurement": "GI50", "setting": "[8]", "result": 5.61, "unit": "µM"},
      {"measurement": "TGI", "setting": "[8]", "result": "> 100", "unit": "µM"},
      {"measurement": "GI50", "setting": "[9]", "result": 15.1, "unit": "µM"},
      {"measurement": "TGI", "setting": "[9]", "result": 28.6, "unit": "µM"},
      {"measurement": "GI50", "setting": "[10]", "result": 17.2, "unit": "µM"},
      {"measurement": "TGI", "setting": "[10]", "result": "> 100", "unit": "µM"},
      {"measurement": "GI50", "setting": "[11]", "result": 7.56, "unit": "µM"},
      {"measurement": "TGI", "setting": "[11]", "result": 24.7, "unit": "µM"},
      {"measurement": "GI50", "setting": "[12]", "result": 28.1, "unit": "µM"},
      {"measurement": "TGI", "setting": "[12]", "result": "> 100", "unit": "µM"},
      {"measurement": "GI50", "setting": "[13]", "result": 25.2, "unit": "µM"},
      {"measurement": "TGI", "setting": "[13]", "result": "> 100", "unit": "µM"},
      {"measurement": "GI50", "setting": "[14]", "result": 12.1, "unit": "µM"},
      {"measurement": "TGI", "setting": "[14]", "result": 25.5, "unit": "µM"},
      {"measurement": "GI50", "setting": "[15]", "result": 13.7, "unit": "µM"},
      {"measurement": "TGI", "setting": "[15]", "result": 27.8, "unit": "µM"},
      {"measurement": "GI50", "setting": "[16]", "result": 15.6, "unit": "µM"},
      {"measurement": "TGI", "setting": "[16]", "result": 38.3, "unit": "µM"},
      {"measurement": "GI50", "setting": "[17]", "result": 19.5, "unit": "µM"},
      {"measurement": "TGI", "setting": "[17]", "result": "> 100", "unit": "µM"},
      {"measurement": "GI50", "setting": "[18]", "result": 12.4, "unit": "µM"},
      {"measurement": "TGI", "setting": "[18]", "result": 30.8, "unit": "µM"},
      {"measurement": "GI50", "setting": "[19]", "result": 15.7, "unit": "µM"},
      {"measurement": "TGI", "setting": "[19]", "result": 44, "unit": "µM"},
      {"measurement": "GI50", "setting": "[20]", "result": 10.4, "unit": "µM"},
      {"measurement": "TGI", "setting": "[20]", "result": 26.2, "unit": "µM"},
      {"measurement": "GI50", "setting": "[21]", "result": 4.28, "unit": "µM"},
      {"measurement": "TGI", "setting": "[21]", "result": 19, "unit": "µM"},
      {"measurement": "GI50", "setting": "[22]", "result": 2.19, "unit": "µM"},
      {"measurement": "TGI", "setting": "[22]", "result": 18, "unit": "µM"},
      {"measurement": "GI50", "setting": "[23]", "result": 11.4, "unit": "µM"},
      {"measurement": "TGI", "setting": "[23]", "result": 29.9, "unit": "µM"},
      {"measurement": "GI50", "setting": "[24]", "result": 1.3, "unit": "µM"},
      {"measurement": "TGI", "setting": "[24]", "result": 19.3, "unit": "µM"},
      {"measurement": "GI50", "setting": "[25]", "result": 10.1, "unit": "µM"},
      {"measurement": "TGI", "setting": "[25]", "result": 22, "unit": "µM"},
      {"measurement": "GI50", "setting": "[26]", "result": 7.13, "unit": "µM"},
      {"measurement": "TGI", "setting": "[26]", "result": 21.3, "unit": "µM"},
      {"measurement": "GI50", "setting": "[27]", "result": 7.36, "unit": "µM"},
      {"measurement": "TGI", "setting": "[27]", "result": 21, "unit": "µM"},
      {"measurement": "GI50", "setting": "[28]", "result": 4.78, "unit": "µM"},
      {"measurement": "TGI", "setting": "[28]", "result": 18.9, "unit": "µM"},
      {"measurement": "GI50", "setting": "[29]", "result": 20.7, "unit": "µM"},
      {"measurement": "TGI", "setting": "[29]", "result": 73.6, "unit": "µM"}
    ]}
  ]
}
